In assay [1] the target is Transcriptional enhancer factor TEF-1 (Homo sapiens, UniProt P28347). The assay can be described thus: Inhibition of His-tagged TEAD1 (unknown origin) preincubated for 0.5 to 4 hrs followed by biotinylated lipid pocket probe addition and measured after 60 min by TR-FRET assay.
Assay [2] addresses Transcriptional enhancer factor TEF-3 (Homo sapiens, UniProt Q15561). The assay can be described thus: Inhibition of His-tagged TEAD4 (unknown origin) preincubated for 0.5 to 4 hrs followed by biotinylated lipid pocket probe addition and measured after 60 min by TR-FRET assay. For orientation: TR-FRET usually uses a lanthanide donor and a delayed reading to cut background.
The target of assay [3] is Transcriptional enhancer factor TEF-4 (Homo sapiens, UniProt Q15562). The assay can be described thus: Inhibition of His-tagged TEAD2 (unknown origin) preincubated for 0.5 to 4 hrs followed by biotinylated lipid pocket probe addition and measured after 60 min by TR-FRET assay.
Assay [4] concerns the target Transcriptional enhancer factor TEF-5 (Homo sapiens, UniProt Q99594). The assay can be described thus: Inhibition of His-tagged TEAD3 (unknown origin) preincubated for 0.5 to 4 hrs followed by biotinylated lipid pocket probe addition and measured after 60 min by TR-FRET assay.

The record followed here is ChEMBL document CHEMBL5370627, “Novel Indazole Compounds as TEAD Inhibitors for Treating Cancer” (ACS Med Chem Lett, 2023).

For orientation: IC50 means the midpoint of a concentration-inhibition curve.

Chain of Transcriptional enhancer factor TEF-3 (Q15561 whole entry): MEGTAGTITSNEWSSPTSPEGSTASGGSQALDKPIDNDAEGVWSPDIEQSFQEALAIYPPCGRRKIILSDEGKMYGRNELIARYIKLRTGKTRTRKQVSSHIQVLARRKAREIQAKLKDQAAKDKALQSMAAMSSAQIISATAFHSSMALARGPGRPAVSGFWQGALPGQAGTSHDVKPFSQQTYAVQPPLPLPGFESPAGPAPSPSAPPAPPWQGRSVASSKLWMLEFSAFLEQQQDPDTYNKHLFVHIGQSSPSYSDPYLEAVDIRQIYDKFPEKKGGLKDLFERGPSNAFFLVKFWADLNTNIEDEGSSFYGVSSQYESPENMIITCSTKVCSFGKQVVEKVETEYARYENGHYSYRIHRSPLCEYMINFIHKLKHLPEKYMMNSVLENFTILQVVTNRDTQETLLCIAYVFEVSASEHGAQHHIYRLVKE
Chain of Transcriptional enhancer factor TEF-1 (P28347 whole entry): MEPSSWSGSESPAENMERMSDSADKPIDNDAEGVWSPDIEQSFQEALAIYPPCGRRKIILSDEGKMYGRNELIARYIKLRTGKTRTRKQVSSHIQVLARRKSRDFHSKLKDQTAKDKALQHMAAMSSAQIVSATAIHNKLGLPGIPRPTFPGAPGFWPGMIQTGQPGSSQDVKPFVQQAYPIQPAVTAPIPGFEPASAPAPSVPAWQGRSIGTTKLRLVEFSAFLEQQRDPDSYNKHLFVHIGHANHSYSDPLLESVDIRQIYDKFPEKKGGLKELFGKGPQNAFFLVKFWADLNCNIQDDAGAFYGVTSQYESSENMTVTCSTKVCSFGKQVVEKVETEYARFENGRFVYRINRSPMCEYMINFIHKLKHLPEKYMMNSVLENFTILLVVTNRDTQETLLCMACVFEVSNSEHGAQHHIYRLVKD
Chain of Transcriptional enhancer factor TEF-4 (Q15562 whole entry): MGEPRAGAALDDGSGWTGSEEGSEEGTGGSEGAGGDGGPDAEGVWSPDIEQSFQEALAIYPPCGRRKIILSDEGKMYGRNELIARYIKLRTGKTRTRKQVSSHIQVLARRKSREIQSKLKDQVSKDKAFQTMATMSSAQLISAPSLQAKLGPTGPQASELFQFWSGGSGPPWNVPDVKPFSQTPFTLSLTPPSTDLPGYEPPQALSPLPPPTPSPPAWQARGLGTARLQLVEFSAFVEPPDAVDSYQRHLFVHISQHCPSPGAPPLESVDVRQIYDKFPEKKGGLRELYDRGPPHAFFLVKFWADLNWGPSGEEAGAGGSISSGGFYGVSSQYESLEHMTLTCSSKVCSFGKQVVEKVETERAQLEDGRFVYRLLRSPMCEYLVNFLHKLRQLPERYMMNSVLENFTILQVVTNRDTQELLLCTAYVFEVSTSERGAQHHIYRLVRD
Chain of Transcriptional enhancer factor TEF-5 (Q99594 whole entry): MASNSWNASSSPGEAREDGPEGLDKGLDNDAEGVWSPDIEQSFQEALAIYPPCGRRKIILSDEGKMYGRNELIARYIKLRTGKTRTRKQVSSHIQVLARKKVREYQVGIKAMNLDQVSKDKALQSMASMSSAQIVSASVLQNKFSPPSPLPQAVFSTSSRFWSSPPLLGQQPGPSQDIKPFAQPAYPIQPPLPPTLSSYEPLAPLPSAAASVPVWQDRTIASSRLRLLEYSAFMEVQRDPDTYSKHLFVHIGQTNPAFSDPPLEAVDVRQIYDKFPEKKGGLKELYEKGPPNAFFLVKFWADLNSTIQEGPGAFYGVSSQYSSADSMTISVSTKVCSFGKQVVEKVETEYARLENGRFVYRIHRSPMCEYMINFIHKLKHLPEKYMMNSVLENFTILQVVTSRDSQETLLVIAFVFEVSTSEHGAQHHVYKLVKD

With `O=C(/C=C/CO)N1CC(c2nn(-c3ccc(OC(F)(F)F)cc3)c3nccc(Cl)c23)C1`, the values for the IC50 in assay [1] and in assay [2] were 8 nM and 3 nM, respectively.
On to `C#Cc1ccnc2c1c(C1CN(C(=O)C=C)C1)nn2-c1ccc(OC(F)(F)F)cc1`, for which the IC50 in assay [1] stood at 4 nM; in assay [3] it was 2 nM; in assay [4] it was 5 nM; in assay [2], 9 nM.
